{"source": "patent US6355799B1", "about": "“Substituted benzene compounds, process for their preparation, and herbicidal and defoliant compositions containing them” (ISK Americas Incorporated, priority 1997, dated 2002)", "assay_type_in_all_cases": "in vivo", "key": {"[1]": {"test_system": "redroot pigweed (Amaranthus retroflexus, AMARE)", "test": "Pre-emerge test, greenhouse herbicide activity screening", "details": "pre-emerge, rated 14 days after application, 0 = no damage, 100 = complete death", "in_short": "(§1)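 Compounds in acetone were track-sprayed at 15-1000 g ai/ha (187 l/ha) on sandy loam pots: pre-emerge one day after seeding, post-emerge at 2-3 leaf stage with 0.25% v/v non-ionic surfactant. Phytotoxicity was rated 14 days later on a 0 (no damage) to 100 (complete death) scale.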"}, "[2]": {"test_system": "upland rice (Oryza sp., var. Tebonnet, RICE)", "test": "Post-emerge test, crop safety", "details": "phytotoxicity rating 0-100 (0 no damage, 100 complete death), 14 days after application", "in_short": "as §1"}, "[3]": {"test_system": "field corn (Zea mays L., var. Dekalb 535, CORN)", "test": "Post-emerge test, crop safety", "details": "phytotoxicity rating 0-100 (0 no damage, 100 complete death), 14 days after application", "in_short": "as §1"}, "[4]": {"test_system": "velvetleaf (Abutilon theophrasti, ABUTH)", "test": "Pre-emerge test, greenhouse herbicide activity screening", "details": "pre-emerge, rated 14 days after application, 0 = no damage, 100 = complete death", "in_short": "as §1"}, "[5]": {"test_system": "barnyardgrass (Echinochloa crus-galli, ECHCG)", "test": "Pre-emerge test, greenhouse herbicide activity screening", "details": "pre-emerge, rated 14 days after application, 0 = no damage, 100 = complete death", "in_short": "as §1"}, "[6]": {"test_system": "green foxtail (Setaria viridis, SETVI)", "test": "Pre-emerge test, greenhouse herbicide activity screening", "details": "pre-emerge, rated 14 days after application, 0 = no damage, 100 = complete death", "in_short": "as §1"}, "[7]": {"test_system": "large crabgrass (Digitaria sanguinalis, DIGSA)", "test": "Pre-emerge test, greenhouse herbicide activity screening", "details": "pre-emerge, rated 14 days after application, 0 = no damage, 100 = complete death", "in_short": "as §1"}, "[8]": {"test_system": "lambsquarters (Chenopodium album, CHEAL)", "test": "Pre-emerge test, greenhouse herbicide activity screening", "details": "pre-emerge, rated 14 days after application, 0 = no damage, 100 = complete death", "in_short": "as §1"}, "[9]": {"test_system": "johnsongrass (Sorghum halepense, SORHA)", "test": "Pre-emerge test, greenhouse herbicide activity screening", "details": "pre-emerge, rated 14 days after application, 0 = no damage, 100 = complete death", "in_short": "as §1"}, "[10]": {"test_system": "sicklepod (Cassia obtusifolia, CASOB)", "test": "Pre-emerge test, greenhouse herbicide activity screening", "details": "pre-emerge, rated 14 days after application, 0 = no damage, 100 = complete death", "in_short": "as §1"}, "[11]": {"test_system": "ivyleaf morningglory (Ipomoea hederacea, IPOHE)", "test": "Pre-emerge test, greenhouse herbicide activity screening", "details": "pre-emerge, rated 14 days after application, 0 = no damage, 100 = complete death", "in_short": "as §1"}, "[12]": {"test_system": "upland rice (Oryza sp., var. Tebonnet, RICE)", "test": "Pre-emerge test, crop safety", "details": "pre-emerge, rated 14 days after application, 0 = no damage, 100 = complete death", "in_short": "(§2)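 Fourteen days after spraying, crop and weed injury was graded visually from 0, no effect, to 100, every plant dead. Test substances were dissolved in acetone and applied at 15–1000 g ai/ha with a flat-fan nozzle. Application was either pre-emergence, one day after sowing, or post-emergence at the 2–3 leaf stage.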"}, "[13]": {"test_system": "field corn (Zea mays L., var. Dekalb 535, CORN)", "test": "Pre-emerge test, crop safety", "details": "pre-emerge, rated 14 days after application, 0 = no damage, 100 = complete death", "in_short": "as §2"}, "[14]": {"test_system": "velvetleaf (Abutilon theophrasti, ABUTH)", "test": "Post-emerge test, greenhouse herbicide activity screening", "details": "phytotoxicity rating 0-100 (0 no damage, 100 complete death), 14 days after application", "in_short": "(§3)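 Visual ratings on a 0-100 scale (0 no damage, 100 all plants dead) were taken at 14 days after treatment. Rates of 15-1000 g ai/ha in acetone, 187 l/ha, were sprayed onto soil one day after planting (pre-emerge) or onto 2-3 leaf plants with 0.25% v/v surfactant (post-emerge).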"}, "[15]": {"test_system": "barnyardgrass (Echinochloa crus-galli, ECHCG)", "test": "Post-emerge test, greenhouse herbicide activity screening", "details": "phytotoxicity rating 0-100 (0 no damage, 100 complete death), 14 days after application", "in_short": "as §3"}, "[16]": {"test_system": "green foxtail (Setaria viridis, SETVI)", "test": "Post-emerge test, greenhouse herbicide activity screening", "details": "phytotoxicity rating 0-100 (0 no damage, 100 complete death), 14 days after application", "in_short": "as §3"}, "[17]": {"test_system": "large crabgrass (Digitaria sanguinalis, DIGSA)", "test": "Post-emerge test, greenhouse herbicide activity screening", "details": "phytotoxicity rating 0-100 (0 no damage, 100 complete death), 14 days after application", "in_short": "as §3"}, "[18]": {"test_system": "redroot pigweed (Amaranthus retroflexus, AMARE)", "test": "Post-emerge test, greenhouse herbicide activity screening", "details": "phytotoxicity rating 0-100 (0 no damage, 100 complete death), 14 days after application", "in_short": "as §3"}, "[19]": {"test_system": "lambsquarters (Chenopodium album, CHEAL)", "test": "Post-emerge test, greenhouse herbicide activity screening", "details": "phytotoxicity rating 0-100 (0 no damage, 100 complete death), 14 days after application", "in_short": "as §3"}, "[20]": {"test_system": "johnsongrass (Sorghum halepense, SORHA)", "test": "Post-emerge test, greenhouse herbicide activity screening", "details": "phytotoxicity rating 0-100 (0 no damage, 100 complete death), 14 days after application", "in_short": "as §3"}, "[21]": {"test_system": "sicklepod (Cassia obtusifolia, CASOB)", "test": "Post-emerge test, greenhouse herbicide activity screening", "details": "phytotoxicity rating 0-100 (0 no damage, 100 complete death), 14 days after application", "in_short": "as §3"}, "[22]": {"test_system": "ivyleaf morningglory (Ipomoea hederacea, IPOHE)", "test": "Post-emerge test, greenhouse herbicide activity screening", "details": "phytotoxicity rating 0-100 (0 no damage, 100 complete death), 14 days after application", "in_short": "as §3"}, "[23]": {"test_system": "common ragweed (Ambrosia artemisizfolia L., AMBEL)", "test": "Post-emerge test, greenhouse herbicide activity screening", "details": "250 g ai/ha; phytotoxicity rating 0-100 (0 no damage, 100 complete death), 14 days after application", "in_short": "as §3"}}, "data": [{"smiles": "COc1c(Cl)cc(F)c(-n2c(=O)cc(C(F)(F)F)n(C)c2=O)c1NC(=O)C1CCCCC1", "note": "[2-19]", "values": [{"measurement": "Pre-emerge Herbicidal Activity AMARE (phytotoxicity rating, scale 0-100)", "setting": "[1]; 63 g ai/ha", "value": 80}, {"measurement": "Pre-emerge Herbicidal Activity AMARE (phytotoxicity rating, scale 0-100)", "setting": "[1]; 250 g ai/ha", "value": 100}, {"measurement": "Post-emerge Herbicidal Activity RICE (crop damage)", "setting": "[2]; 63 g ai/ha", "value": 0}, {"measurement": "Post-emerge Herbicidal Activity RICE (crop damage)", "setting": "[2]; 250 g ai/ha", "value": 20}, {"measurement": "Post-emerge Herbicidal Activity CORN (crop damage)", "setting": "[3]; 63 g ai/ha", "value": 0}, {"measurement": "Post-emerge Herbicidal Activity CORN (crop damage)", "setting": "[3]; 250 g ai/ha", "value": 0}, {"measurement": "Pre-emerge Herbicidal Activity ABUTH (phytotoxicity rating, scale 0-100)", "setting": "[4]; 63 g ai/ha", "value": 90}, {"measurement": "Pre-emerge Herbicidal Activity ABUTH (phytotoxicity rating, scale 0-100)", "setting": "[4]; 250 g ai/ha", "value": 100}, {"measurement": "Pre-emerge Herbicidal Activity ECHCG (phytotoxicity rating, scale 0-100)", "setting": "[5]; 63 g ai/ha", "value": 0}, {"measurement": "Pre-emerge Herbicidal Activity ECHCG (phytotoxicity rating, scale 0-100)", "setting": "[5]; 250 g ai/ha", "value": 50}, {"measurement": "Pre-emerge Herbicidal Activity SETVI (phytotoxicity rating, scale 0-100)", "setting": "[6]; 63 g ai/ha", "value": 20}, {"measurement": "Pre-emerge Herbicidal Activity SETVI (phytotoxicity rating, scale 0-100)", "setting": "[6]; 250 g ai/ha", "value": 100}, {"measurement": "Pre-emerge Herbicidal Activity DIGSA (phytotoxicity rating, scale 0-100)", "setting": "[7]; 63 g ai/ha", "value": 40}, {"measurement": "Pre-emerge Herbicidal Activity DIGSA (phytotoxicity rating, scale 0-100)", "setting": "[7]; 250 g ai/ha", "value": 100}, {"measurement": "Pre-emerge Herbicidal Activity CHEAL (phytotoxicity rating, scale 0-100)", "setting": "[8]; 63 g ai/ha", "value": 95}, {"measurement": "Pre-emerge Herbicidal Activity CHEAL (phytotoxicity rating, scale 0-100)", "setting": "[8]; 250 g ai/ha", "value": 100}, {"measurement": "Pre-emerge Herbicidal Activity SORHA (phytotoxicity rating, scale 0-100)", "setting": "[9]; 63 g ai/ha", "value": 0}, {"measurement": "Pre-emerge Herbicidal Activity SORHA (phytotoxicity rating, scale 0-100)", "setting": "[9]; 250 g ai/ha", "value": 60}, {"measurement": "Pre-emerge Herbicidal Activity CASOB (phytotoxicity rating, scale 0-100)", "setting": "[10]; 63 g ai/ha", "value": 0}, {"measurement": "Pre-emerge Herbicidal Activity CASOB (phytotoxicity rating, scale 0-100)", "setting": "[10]; 250 g ai/ha", "value": 10}, {"measurement": "Pre-emerge Herbicidal Activity IPOHE (phytotoxicity rating, scale 0-100)", "setting": "[11]; 63 g ai/ha", "value": 10}, {"measurement": "Pre-emerge Herbicidal Activity IPOHE (phytotoxicity rating, scale 0-100)", "setting": "[11]; 250 g ai/ha", "value": 100}, {"measurement": "Pre-emerge crop damage RICE (phytotoxicity rating, scale 0-100)", "setting": "[12]; 63 g ai/ha", "value": 10}, {"measurement": "Pre-emerge crop damage RICE (phytotoxicity rating, scale 0-100)", "setting": "[12]; 250 g ai/ha", "value": 60}, {"measurement": "Pre-emerge crop damage CORN (phytotoxicity rating, scale 0-100)", "setting": "[13]; 63 g ai/ha", "value": 5}, {"measurement": "Pre-emerge crop damage CORN (phytotoxicity rating, scale 0-100)", "setting": "[13]; 250 g ai/ha", "value": 40}, {"measurement": "Post-emerge Herbicidal Activity ABUTH", "setting": "[14]; 63 g ai/ha", "value": 90}, {"measurement": "Post-emerge Herbicidal Activity ABUTH", "setting": "[14]; 250 g ai/ha", "value": 100}, {"measurement": "Post-emerge Herbicidal Activity ECHCG", "setting": "[15]; 63 g ai/ha", "value": 0}, {"measurement": "Post-emerge Herbicidal Activity ECHCG", "setting": "[15]; 250 g ai/ha", "value": 0}, {"measurement": "Post-emerge Herbicidal Activity SETVI", "setting": "[16]; 63 g ai/ha", "value": 0}, {"measurement": "Post-emerge Herbicidal Activity SETVI", "setting": "[16]; 250 g ai/ha", "value": 30}, {"measurement": "Post-emerge Herbicidal Activity DIGSA", "setting": "[17]; 63 g ai/ha", "value": 0}, {"measurement": "Post-emerge Herbicidal Activity DIGSA", "setting": "[17]; 250 g ai/ha", "value": 0}, {"measurement": "Post-emerge Herbicidal Activity AMARE", "setting": "[18]; 63 g ai/ha", "value": 40}, {"measurement": "Post-emerge Herbicidal Activity AMARE", "setting": "[18]; 250 g ai/ha", "value": 75}, {"measurement": "Post-emerge Herbicidal Activity CHEAL", "setting": "[19]; 63 g ai/ha", "value": 50}, {"measurement": "Post-emerge Herbicidal Activity CHEAL", "setting": "[19]; 250 g ai/ha", "value": 50}, {"measurement": "Post-emerge Herbicidal Activity SORHA", "setting": "[20]; 63 g ai/ha", "value": 0}, {"measurement": "Post-emerge Herbicidal Activity SORHA", "setting": "[20]; 250 g ai/ha", "value": 0}, {"measurement": "Post-emerge Herbicidal Activity CASOB", "setting": "[21]; 63 g ai/ha", "value": 0}, {"measurement": "Post-emerge Herbicidal Activity CASOB", "setting": "[21]; 250 g ai/ha", "value": 10}, {"measurement": "Post-emerge Herbicidal Activity IPOHE", "setting": "[22]; 63 g ai/ha", "value": 70}, {"measurement": "Post-emerge Herbicidal Activity IPOHE", "setting": "[22]; 250 g ai/ha", "value": 100}, {"measurement": "Post-emerge Herbicidal Activity AMBEL", "setting": "[23]", "value": 30}]}]}
